ChEMBL document CHEMBL1149965, “Synthesis and biological evaluation of conformationally constrained bicyclic and tricyclic balanol analogues as inhibitors of protein kinase C” (Bioorg Med Chem Lett, 1995)

Experiments:
[1] = target: Protein kinase C alpha type (Homo sapiens, UniProt P17252); assay: Inhibition of Protein kinase C alpha
[2] = target: Protein kinase C gamma type (Homo sapiens, UniProt P05129); assay: Inhibition Protein kinase C gamma
[3] = target: Protein kinase C eta type (Homo sapiens, UniProt P24723); assay: Inhibition of Protein kinase C eta
Sequence of Protein kinase C eta type (P24723 whole entry): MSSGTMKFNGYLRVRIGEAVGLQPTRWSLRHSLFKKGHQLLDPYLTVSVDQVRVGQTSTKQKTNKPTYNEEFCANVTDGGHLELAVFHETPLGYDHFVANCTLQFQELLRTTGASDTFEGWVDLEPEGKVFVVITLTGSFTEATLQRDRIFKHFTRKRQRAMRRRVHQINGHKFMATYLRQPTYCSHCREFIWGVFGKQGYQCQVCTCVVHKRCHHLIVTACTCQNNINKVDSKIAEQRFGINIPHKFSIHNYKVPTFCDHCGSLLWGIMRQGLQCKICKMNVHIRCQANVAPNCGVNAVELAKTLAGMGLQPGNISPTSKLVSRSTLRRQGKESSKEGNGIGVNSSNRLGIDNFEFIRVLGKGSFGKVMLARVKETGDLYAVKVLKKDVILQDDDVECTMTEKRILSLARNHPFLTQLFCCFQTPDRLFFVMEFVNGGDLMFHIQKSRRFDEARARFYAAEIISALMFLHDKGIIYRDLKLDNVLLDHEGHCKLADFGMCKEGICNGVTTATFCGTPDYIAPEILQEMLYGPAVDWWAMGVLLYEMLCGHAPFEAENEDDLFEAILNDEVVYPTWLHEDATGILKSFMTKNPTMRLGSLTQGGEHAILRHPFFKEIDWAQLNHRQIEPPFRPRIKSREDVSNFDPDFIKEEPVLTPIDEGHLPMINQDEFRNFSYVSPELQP

[4] = target: cAMP-dependent protein kinase (PKA) (Homo sapiens, UniProt P22694+P17612+P22612); assay: Inhibition of Protein Kinase A; assay type: protein assay
[5] = target: T1, Protein kinase C epsilon type (Homo sapiens, UniProt Q02156); assay: Inhibition of Protein kinase C epsilon
T1 sequence (Q02156 whole entry): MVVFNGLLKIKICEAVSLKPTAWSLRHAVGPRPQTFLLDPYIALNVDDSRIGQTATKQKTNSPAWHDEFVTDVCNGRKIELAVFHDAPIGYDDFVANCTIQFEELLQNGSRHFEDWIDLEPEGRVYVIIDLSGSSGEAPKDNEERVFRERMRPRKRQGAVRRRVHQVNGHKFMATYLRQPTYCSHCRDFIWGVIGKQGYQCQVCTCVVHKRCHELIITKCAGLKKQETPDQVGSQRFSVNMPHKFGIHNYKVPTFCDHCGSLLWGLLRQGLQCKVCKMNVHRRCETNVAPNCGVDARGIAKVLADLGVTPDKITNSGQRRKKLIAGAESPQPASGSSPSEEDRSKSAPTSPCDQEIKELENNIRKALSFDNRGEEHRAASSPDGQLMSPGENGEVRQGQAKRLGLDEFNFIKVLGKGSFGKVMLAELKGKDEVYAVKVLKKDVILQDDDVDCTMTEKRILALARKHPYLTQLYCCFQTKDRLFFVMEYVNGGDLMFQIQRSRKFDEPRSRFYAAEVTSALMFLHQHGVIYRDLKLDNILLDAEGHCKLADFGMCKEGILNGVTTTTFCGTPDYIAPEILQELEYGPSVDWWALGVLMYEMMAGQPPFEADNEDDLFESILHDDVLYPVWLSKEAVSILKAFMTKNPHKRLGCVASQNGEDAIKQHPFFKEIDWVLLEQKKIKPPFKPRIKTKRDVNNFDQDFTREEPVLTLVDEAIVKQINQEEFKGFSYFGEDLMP

[6] = target: T2, Protein kinase C zeta type (Homo sapiens, UniProt Q05513); assay: Inhibition of Protein kinase C zeta
T2 sequence (Q05513 whole entry): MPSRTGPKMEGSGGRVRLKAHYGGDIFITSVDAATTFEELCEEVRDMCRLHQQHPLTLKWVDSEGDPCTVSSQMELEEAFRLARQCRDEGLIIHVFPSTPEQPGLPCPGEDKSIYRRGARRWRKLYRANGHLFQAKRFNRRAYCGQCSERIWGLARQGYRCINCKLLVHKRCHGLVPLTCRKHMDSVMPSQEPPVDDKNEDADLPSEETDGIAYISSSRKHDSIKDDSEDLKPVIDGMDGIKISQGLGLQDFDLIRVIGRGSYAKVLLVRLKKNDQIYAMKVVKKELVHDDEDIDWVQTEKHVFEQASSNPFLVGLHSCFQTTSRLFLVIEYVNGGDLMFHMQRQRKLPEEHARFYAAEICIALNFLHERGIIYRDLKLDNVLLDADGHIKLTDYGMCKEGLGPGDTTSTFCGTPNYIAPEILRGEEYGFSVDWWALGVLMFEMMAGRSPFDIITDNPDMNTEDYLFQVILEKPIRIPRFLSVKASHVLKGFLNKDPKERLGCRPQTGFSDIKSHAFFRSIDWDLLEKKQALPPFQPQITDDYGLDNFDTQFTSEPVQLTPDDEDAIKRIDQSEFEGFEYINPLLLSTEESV

[7] = target: T3, Protein kinase C beta type (Homo sapiens, UniProt P05771); assay: Inhibition of Protein kinase C beta 2
T3 sequence (P05771 whole entry): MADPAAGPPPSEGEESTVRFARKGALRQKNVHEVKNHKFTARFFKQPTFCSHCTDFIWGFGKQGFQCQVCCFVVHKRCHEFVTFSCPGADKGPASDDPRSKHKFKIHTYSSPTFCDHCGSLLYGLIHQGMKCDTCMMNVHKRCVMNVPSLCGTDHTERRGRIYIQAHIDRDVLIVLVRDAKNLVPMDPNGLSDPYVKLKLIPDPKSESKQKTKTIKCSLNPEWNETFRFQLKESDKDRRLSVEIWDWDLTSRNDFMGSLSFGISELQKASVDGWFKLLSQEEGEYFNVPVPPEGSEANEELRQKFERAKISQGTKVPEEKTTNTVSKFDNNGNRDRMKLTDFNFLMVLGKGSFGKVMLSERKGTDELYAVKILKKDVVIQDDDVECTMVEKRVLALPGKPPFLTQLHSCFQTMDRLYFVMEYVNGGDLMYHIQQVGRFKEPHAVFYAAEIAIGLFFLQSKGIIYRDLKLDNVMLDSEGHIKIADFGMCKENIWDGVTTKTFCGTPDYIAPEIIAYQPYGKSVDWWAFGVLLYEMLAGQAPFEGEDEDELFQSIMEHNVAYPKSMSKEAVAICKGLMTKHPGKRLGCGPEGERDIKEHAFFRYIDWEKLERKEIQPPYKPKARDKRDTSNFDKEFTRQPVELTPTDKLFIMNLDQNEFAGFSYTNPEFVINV

[8] = target: Protein kinase C delta type (Homo sapiens, UniProt Q05655); assay: Inhibition of Protein kinase C delta
Sequence of Protein kinase C delta type (Q05655 whole entry): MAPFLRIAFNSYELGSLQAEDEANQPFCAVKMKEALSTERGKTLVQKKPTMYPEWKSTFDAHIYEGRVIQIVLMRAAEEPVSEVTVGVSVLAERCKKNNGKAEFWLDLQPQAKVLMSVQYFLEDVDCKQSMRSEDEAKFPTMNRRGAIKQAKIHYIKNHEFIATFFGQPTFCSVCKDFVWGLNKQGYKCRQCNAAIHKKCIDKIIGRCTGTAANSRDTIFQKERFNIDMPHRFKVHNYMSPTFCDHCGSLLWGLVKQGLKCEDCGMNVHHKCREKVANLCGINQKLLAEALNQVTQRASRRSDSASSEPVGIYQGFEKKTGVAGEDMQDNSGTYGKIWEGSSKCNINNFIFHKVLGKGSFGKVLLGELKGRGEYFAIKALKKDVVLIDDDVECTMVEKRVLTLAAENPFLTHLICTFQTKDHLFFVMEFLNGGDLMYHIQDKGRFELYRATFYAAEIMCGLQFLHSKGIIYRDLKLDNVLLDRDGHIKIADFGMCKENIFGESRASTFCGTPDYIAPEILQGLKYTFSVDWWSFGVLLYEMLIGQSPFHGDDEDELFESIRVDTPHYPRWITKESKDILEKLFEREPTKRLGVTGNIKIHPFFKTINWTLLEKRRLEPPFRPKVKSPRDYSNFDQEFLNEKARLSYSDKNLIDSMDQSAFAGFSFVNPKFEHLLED

[9] = target: T3, Protein kinase C beta type; assay: Inhibition of Protein kinase C beta 1

| Structure (SMILES) | IC50 [1] | IC50 [2] | IC50 [3] | IC50 [4] | IC50 [5] | IC50 [6] | IC50 [7] | IC50 [8] | IC50 [9] |
| --- | --- | --- | --- | --- | --- | --- | --- | --- | --- |
| CC1(C)C2CCC1(C)C(OC(=O)c1cc(O)c(C(=O)c3c(O)cccc3C(=O)O)c(O)c1)C2NC(=O)c1ccc(O)cc1 (stereo not drawn) | 410 nM | 210 nM | 310 nM | 26000 nM | 3600 nM | > 50000 nM | 80 nM | 340 nM | 310 nM |
| O=C(NC1CNC[C@@H]1OC(=O)c1cc(O)c(C(=O)c2c(O)cccc2C(=O)O)c(O)c1)c1ccc(O)cc1 (mixture of isomers) | 22 nM | 14 nM | 4 nM | 70 nM | 15 nM | > 150 nM | 33 nM | 5 nM | 17 nM |
| O=C(NC1C2CCC(C2)C1OC(=O)c1cc(O)c(C(=O)c2c(O)cccc2C(=O)O)c(O)c1)c1ccc(O)cc1 (stereo in doubt) | 24000 nM | 10000 nM | 4500 nM | > 50000 nM | 1500 nM | – | 6900 nM | 3500 nM | 17000 nM |
| CN1C2CCC1C(NC(=O)c1ccc(O)cc1)C(OC(=O)c1cc(O)c(C(=O)c3c(O)cccc3C(=O)O)c(O)c1)C2 (stereo in doubt; anti) | 34000 nM | 4600 nM | 2800 nM | > 50000 nM | 27000 nM | > 50000 nM | 14000 nM | 5000 nM | 4400 nM |
| O=C(NC1CN2CCC(CC2)C1OC(=O)c1cc(O)c(C(=O)c2c(O)cccc2C(=O)O)c(O)c1)c1ccc(O)cc1 (stereo in doubt; anti) | 415 nM | 170 nM | 26 nM | 2000 nM | 170 nM | – | 69 nM | 112 nM | 26 nM |
| O=C(NC1C2CC(C3CCCC32)C1OC(=O)c1cc(O)c(C(=O)c2c(O)cccc2C(=O)O)c(O)c1)c1ccc(O)cc1 (stereo in doubt; anti) | 100 nM | 50 nM | 50 nM | 32000 nM | 970 nM | – | 30 nM | 50 nM | 150 nM |
| CN1C2CCC1C(NC(=O)c1ccc(O)cc1)C(OC(=O)c1cc(O)c(C(=O)c3c(O)cccc3C(=O)O)c(O)c1)C2 (stereo in doubt; syn) | 35000 nM | 16000 nM | 2500 nM | > 50000 nM | 49000 nM | > 50000 nM | 22000 nM | 3800 nM | 22000 nM |
| O=C(NC1CN2CCC(CC2)C1OC(=O)c1cc(O)c(C(=O)c2c(O)cccc2C(=O)O)c(O)c1)c1ccc(O)cc1 (stereo in doubt; syn) | 12000 nM | 4600 nM | 490 nM | > 50000 nM | 14000 nM | – | 34000 nM | 1000 nM | 6300 nM |

Second part, the compound after the results:

| IC50 [1] | IC50 [2] | IC50 [3] | IC50 [4] | IC50 [5] | IC50 [6] | IC50 [7] | IC50 [8] | IC50 [9] | Structure (SMILES) |
| --- | --- | --- | --- | --- | --- | --- | --- | --- | --- |
| 74 nM | 34 nM | 22 nM | – | – | 3500 nM | 44 nM | 32 nM | 32 nM | O=C(N[C@@H]1CNCCCC1OC(=O)c1cc(O)c(C(=O)c2c(O)cccc2C(=O)O)c(O)c1)c1ccc(O)cc1 (mixture of isomers) |
| 40 nM | 10 nM | 1 nM | – | 50 nM | – | 50 nM | 1 nM | 40 nM | O=C(NC1CCC[C@@H]1OC(=O)c1cc(O)c(C(=O)c2c(O)cccc2C(=O)O)c(O)c1)c1ccc(O)cc1 (mixture of isomers) |
| 55 nM | 35 nM | 20 nM | 1900 nM | 30 nM | – | 30 nM | 20 nM | 45 nM | O=C(NC1C2CCC(C2)C1OC(=O)c1cc(O)c(C(=O)c2c(O)cccc2C(=O)O)c(O)c1)c1ccc(O)cc1 (racemic) |
| 2700 nM | 1600 nM | 1900 nM | > 50000 nM | 40000 nM | – | 2100 nM | 2000 nM | 3300 nM | O=C(NC1C2CC(C3CCCC32)C1OC(=O)c1cc(O)c(C(=O)c2c(O)cccc2C(=O)O)c(O)c1)c1ccc(O)cc1 (stereo in doubt; syn) |
